US20220031719A1, “ANTIVIRAL THERAPEUTIC DRUG COMBINATIONS” (THE UNIVERSITY OF TULSA, priority 2020, published 2022)
Entries after “also recorded” stand apart in the source; their conditions may differ. Like-named read-outs stand apart in the source and are kept apart here.

Legend:
Type in all cases: cell-based
h293 cells = assay: ATP levels by CellTiterGlo in h293 cells (inhibition assays)
Experimental: Drugs. All drugs were obtained from Sigma except diphenhydramine (purchased commercially as 25 mg allergy tablets) and famotidine (purchased commercially as 10 mg acid controller tablets). All compounds were dissolved in ultrapure water except quinine, which was re-suspended in ethanol. Rotenone was prepared as a concentrated solution in 100% DMSO, then diluted to a working stock (125 μM) in water (final concentration 2.5 μM). 2-DG was used at a final concentration of 20 mM. Diphenhydramine and famotidine were crushed by mortar and pestle, re-suspended in H2O and rotated at room temperature for 1 h. Insoluble material (e.g., cellulose) was removed by centrifugation. […] Cigar smoke was generated from commercially available Backwoods brand containing nicotine.
Cell culture. The following immortalized cells were obtained from the American Tissue Culture Collection: H293 kidney epithelial cells, HDFs (human diploid fibroblasts immortalized by telomerase expression), and U549 lung carcinoma cells. Cells were maintained in DMEM (Fisher Scientific) supplemented with 10% fetal bovine serum (FBS; Atlas Biologicals, Fort Collins, Colo.). DMEM media contained high glucose (25 mM) and the standard amino acids as carbon sources. Cultures were maintained in a 37° C. water jacketed incubator with 5% CO2. When needed cells were removed from the plate using trypsin. It is important to note that FBS and many commercial preparations of trypsin contain glucose. Unless indicated otherwise, after removal, cells were pelleted by centrifugation (2K 4 min room temperature), aspirated, and re-suspended in the desired media. Other media used in this study were DMEM no glu (Fisher Scientific), which is identical to DMEM except it lacks glucose. L-15 media (Fisher Scientific) contains amino acids but replaces glucose with 5 mM galactose. It also lacks sodium bicarbonate (NaHCO3), which was added to the same concentration as in DMEM (44 mM) in all experiments except FIGS. 4A and 4B. Its presence is essential to buffer the media and prevent its acidification in the CO2 incubator. A DMEM type media lacking sodium bicarbonate was also generated using individual components obtained from Fisher Scientific and Sigma. This media was used for FIG. 4D, where its pH was varied by the addition of 500 mM Hepes pH 7-10 (25 mM final concentration).
Inhibition assays. In general, short term immediate effects of the indicated drugs on ATP levels were analyzed by removing growing cells from a p100 mm plate using trypsin, washing with PBS, and re-suspending in the indicated media. After counting using a hemocytometer, 25-50k cells in […] media were distributed in a 96 well white flat bottom, non-treated polystyrene assay plate. In some cases, media was supplemented by the addition of glucose (20 mM final). The plate was typically incubated for 30 min at 37° C. in a CO2 incubator to allow metabolic pathways to adapt to the media. Drugs when then added in the order and at the concentration indicated for each figure, followed by shaking (700 RPM 10 sec), and returned to the incubator. Incubation times were generally between 1 and 2 h so that direct and immediate effects on ATP production could be evaluated. In most cases samples were run in duplicate or triplicate and the standard deviation determined. FIG. 1B is a more traditional drug analysis, in that cells were seeded in a tissue culture treated 96-well plate, allowed to attach overnight, then treated with 10 μL CellTiterBlue resazurin reagent (Promega) to determine effects on viability. Plates were shaken and incubated in the dark for 1-4 h, followed by excitation at 560 nm and determination of fluorescence emitted at 590 nm using a Tecan Safire plate reader. […] Luciferase activity alone (FIG. 1C) was measured by adding 10 CellTiterGlo reagent to 100 μL DMEM media in the absence of cells. […] The luminescence was determined immediately and at later times as described above.

[1] = test system: Human Diploid Fibroblasts (HDFs); assay: ATP levels by CellTiterGlo in Human Diploid Fibroblasts; settings: HDFs in DMEM, in the presence of 2-DG
Experimental: Cell culture. […] Cells were maintained in DMEM (Fisher Scientific) supplemented with 10% fetal bovine serum (FBS; Atlas Biologicals, Fort Collins, Colo.). DMEM media contained high glucose (25 mM) and the standard amino acids as carbon sources. Cultures were maintained in a 37° C. water jacketed incubator with 5% CO2. When needed cells were removed from the plate using trypsin. […] Unless indicated otherwise, after removal, cells were pelleted by centrifugation (2K 4 min room temperature), aspirated, and re-suspended in the desired media.
Inhibition assays. In general, short term immediate effects of the indicated drugs on ATP levels were analyzed by removing growing cells from a p100 mm plate using trypsin, washing with PBS, and re-suspending in the indicated media. After counting using a hemocytometer, 25-50k cells in 100 mL media were distributed in a 96 well white flat bottom, non-treated polystyrene assay plate. In some cases, media was supplemented by the addition of glucose (20 mM final). […] Incubation times were generally between 1 and 2 h so that direct and immediate effects on ATP production could be evaluated. In most cases samples were run in duplicate or triplicate and the standard deviation determined. […] The luminescence was determined immediately and at later times as described above.

Red blood cells = assay: ATP levels by CellTiterGlo in red blood cells; settings: RBCs in DMEM containing 5 mM glucose
[2] = h293 cells in DMEM (glucose and amino acids), drug alone, short exposure (2 h), no 2-DG or rotenone
[3] = h293 cells in DMEM, in the presence of 2-DG (forced TCA/ETC), drug 2 h
[4] = h293 cells in DMEM no glucose (amino acids only), metabolic inhibitors for 1 h
[5] = h293 cells in DMEM with glucose, metabolic inhibitors for 1 h (2-DG 20 mM, rotenone 2.5 μM)
[6] = h293 cells in L-15 media (galactose instead of glucose), metabolic inhibitors
[7] = h293 cells in L-15 media lacking NaHCO3 (acidified), 37° C. CO2 incubator
[8] = h293 cells in DMEM containing amino acids but lacking glucose, drug alone
[9] = h293 cells in DMEM, in the presence of rotenone (forced glycolysis), drug 2 h
[10] = h293 cells in L-15 media (galactose, plus NaHCO3), no glucose, drug titration
[11] = h293 cells in L-15 media plus glucose, drug titration

Compound: CN(C)CCOC(c1ccccc1)c1ccccc1 [diphenhydramine]
- effect on ATP levels (h293 cells; [2]): minimal effect on ATP production
- effect on ATP levels (h293 cells; [3]): strongly inhibited; also recorded: specifically inhibited mitochondrial ATP production

Compound: O=CC[C@@H](O)[C@H](O)[C@H](O)CO [2-DG, 2-deoxy-D-glucose]
- effect on ATP production (h293 cells; [4]): significant inhibition
- effect on ATP levels (h293 cells; [5]): minimal effect on ATP levels
- effect on ATP production (h293 cells; [6]): partially inhibited
- effect on ATP production (h293 cells; [7]): sensitive

Compound: C=C(C)[C@H]1Cc2c(ccc3c2O[C@@H]2COc4cc(OC)c(OC)cc4[C@@H]2C3=O)O1 [rotenone]
- effect on ATP production (h293 cells; [4]): complete inhibition
- effect on ATP levels (h293 cells; [5]): no effect
- effect on ATP production (h293 cells; [6]): completely inhibited
- effect on ATP production (h293 cells; [7]): sensitive

Compound: NC(N)=Nc1nc(CSCCC(N)=NS(N)(=O)=O)cs1 [famotidine]
- effect on ATP levels (h293 cells; [2]): no effect on ATP production
- effect on ATP levels (h293 cells; [3]): no effect on ATP production

Compound: CN1CCCC1c1cccnc1 (stereo not shown) [nicotine]
- effect on ATP levels (h293 cells): specificity for inhibiting mitochondrial ATP production

Compound: CCN(CCO)CCCC(C)Nc1ccnc2cc(Cl)ccc12 (stereo not shown) [HCQ, hydroxychloroquine]
- effect on ATP production (h293 cells; [8]): inhibited ATP production
- effect on ATP levels (h293 cells; [3]): synergistic effect that dramatically reduced ATP production
- effect on ATP levels (h293 cells; [9]): no effect on ATP levels
- effect on ATP production (h293 cells; [10]): inhibited ATP production; also recorded: very sensitive
- effect on ATP production (h293 cells; [11]): prevented inhibition

Compound: CCN(CC)CCCC(C)Nc1ccnc2cc(Cl)ccc12 (stereo not shown) [CQ, chloroquine]
- effect on ATP levels [1]: confirmed
- effect on ATP levels (h293 cells; [2]): no apparent effect on ATP levels
- effect on ATP production (h293 cells; [8]): inhibited ATP production
- effect on ATP levels (h293 cells; h293 cells in DMEM no glucose with glucose added back): minimal effect on ATP levels
- effect on ATP levels (h293 cells; [3]): markedly reduced; also recorded: synergistic effect that dramatically reduced ATP production
- effect on ATP levels (h293 cells; [9]): no effect on ATP levels
- effect on ATP production (h293 cells; [10]): inhibited ATP production; also recorded: very sensitive
- effect on ATP production (h293 cells; [7]): no CQ inhibition
- effect on ATP production (h293 cells; [11]): prevented inhibition
- time course of inhibition of ATP production (h293 cells; h293 cells in L-15 media plus sodium bicarbonate, 250 μM CQ): increased dramatically over time
- ATP production after order of addition (h293 cells; h293 cells in media containing glucose treated with CQ, then 2-DG added): re-established inhibition of ATP production; also recorded: CQ inhibition is revealed in the presence of 2-DG
- ATP levels after order of addition (h293 cells; h293 cells pre-incubated with CQ 2 h in media lacking glucose, then glucose added for 1 h): re-established ATP levels; also recorded: glucose overcomes CQ inhibition
- pH dependency of inhibition of ATP production (h293 cells; h293 cells, 1 h in DMEM type media lacking NaHCO3 adjusted to pH 7 to 10 with 25 mM Hepes, then L-15): dramatic increase in CQ inhibition with increasing pH; also recorded: Increasing media pH increases ability of CQ to inhibit ATP production
- effect on ATP levels (CellTiterGlo) (h293 cells; h293 cells, overnight titration, same cells as CellTiterBlue): clear CQ dependent decrease
- effect on ATP production via glycolysis (Red blood cells): no effect on ATP production

Compound: C=C[C@H]1C[N@@]2CC[C@H]1C[C@H]2[C@H](O)c1ccnc2ccc(OC)cc12 [Quinine, quinine]
- effect on ATP levels (h293 cells; [3]): much more dramatic in the presence of 2-DG
